# Reference: patent publication US20250296953A1, “3,4-THIAZOLO-STEROIDS AND METHODS OF MAKING AND USING THE SAME” (Arkansas State University - Jonesboro, priority 2018, published 2025)
# Where two headings read alike, the source gives them in different places.
# Key:
# [1] = tested on: 60 different human tumor cell lines; settings: for CC50: read-out: LC50
# HCT-15 (Colon Cancer) = test: NCI 60 one dose screen; type: cell-based, human
# SF-539 = test: NCI 60 one dose screen; type: cell-based, human; settings: one dose; CNS Cancer; SF-539
# [2] = OVCAR-8 (Ovarian Cancer), five dose
# [3] = PC-3 (Prostate Cancer), five dose
# [4] = RXF 393 (Renal Cancer), five dose
# [5] = SK-MEL-28 (Melanoma), five dose
# [6] = SK-OV-3 (Ovarian Cancer), five dose
# [7] = SN12C (Renal Cancer), five dose
# [8] = SW-620 (Colon Cancer), five dose
# [9] = T-47D (Breast Cancer), five dose
# [10] = TK-10 (Renal Cancer), five dose
# [11] = UO-31 (Renal Cancer), five dose
substance,measurement,setting,value
"(1S,2R,13R,14S,18S)-7-(3-fluoroanilino)-2,18-dimethyl-6-thia-8-azapentacyclo[11.7.0.02,10.05,9.014,18]icosa-5(9),7,10-trien-17-one [IIa.8]",TGI,[1]; [2],7.98E−6
same,GI50,[1]; [3],1.88 µM
same,TGI,[1]; [3],3.87E−6
same,GI50,[1]; [4],1.45 µM
same,TGI,[1]; [4],3.25E−6
same,GI50,"[1]; SF-268 (CNS Cancer), five dose",3.09 µM
same,TGI,"[1]; SF-268 (CNS Cancer), five dose",1.11E−5
same,GI50,"[1]; SK-MEL-2 (Melanoma), five dose",1.86 µM
same,TGI,"[1]; SK-MEL-2 (Melanoma), five dose",5.19E−5
same,GI50,"[1]; SK-MEL-5 (Melanoma), five dose",2.02 µM
same,TGI,"[1]; SK-MEL-5 (Melanoma), five dose",4.32E−6
same,GI50,[1]; [5],1.52 µM
same,TGI,[1]; [5],4.27E−6
same,GI50,[1]; [6],2.33 µM
same,TGI,[1]; [6],6.10E−6
same,GI50,[1]; [7],2.36 µM
same,TGI,[1]; [7],6.02E−6
same,GI50,"[1]; SNB-19 (CNS Cancer), five dose",2.33 µM
same,TGI,"[1]; SNB-19 (CNS Cancer), five dose",5.69E−6
same,GI50,"[1]; SNB-75 (CNS Cancer), five dose",1.52 µM
same,TGI,"[1]; SNB-75 (CNS Cancer), five dose",4.94E−6
same,GI50,[1]; [8],2.33 µM
same,TGI,[1]; [8],4.99E−6
same,GI50,[1]; [9],2.22 µM
same,TGI,[1]; [9],6.95E−6
same,GI50,[1]; [10],1.97 µM
same,TGI,[1]; [10],4.15E−6
same,GI50,"[1]; U251 (CNS Cancer), five dose",1.59 µM
same,TGI,"[1]; U251 (CNS Cancer), five dose",3.68E−6
same,GI50,"[1]; UACC-62 (Melanoma), five dose",1.54 µM
same,TGI,"[1]; UACC-62 (Melanoma), five dose",3.12E−6
same,GI50,"[1]; UACC-257 (Melanoma), five dose",5.47 µM
same,TGI,"[1]; UACC-257 (Melanoma), five dose",6.45E−5
same,GI50,[1]; [11],1.67 µM
same,TGI,[1]; [11],3.59E−6
same,GI50,[1]; four of six central nervous system (CNS) cell lines,< 2 µM
same,CC50,"[1]; 786-0 (Renal Cancer), five dose",5.61 µM
same,CC50,"[1]; A498 (Renal Cancer), five dose",> 100 µM
same,CC50,"[1]; A549/ATCC (Non-small Cell Lung Cancer), five dose",> 100 µM
same,CC50,"[1]; ACHN (Renal Cancer), five dose",5.92 µM
same,CC50,"[1]; BT-549 (Breast Cancer), five dose",8.49 µM
same,CC50,"[1]; CAKI-1 (Renal Cancer), five dose",38.1 µM
same,CC50,"[1]; CCRF-CEM (Leukemia), five dose",> 100 µM
same,CC50,"[1]; COLO 205 (Colon Cancer), five dose",24.4 µM
same,CC50,"[1]; DU-145 (Prostate Cancer), five dose",27.4 µM
same,CC50,"[1]; EKVX (Non-small Cell Lung Cancer), five dose",> 100 µM
same,CC50,"[1]; HCC-2998 (Colon Cancer), five dose",88 µM
same,CC50,"[1]; HCT-15 (Colon Cancer), five dose",14.7 µM
same,CC50,"[1]; HCT-116 (Colon Cancer), five dose",6.58 µM
same,CC50,"[1]; HL-60(TB) (Leukemia), five dose",> 100 µM
same,CC50,"[1]; HOP-62 (Non-small Cell Lung Cancer), five dose",24.5 µM
same,CC50,"[1]; HOP-92 (Non-small Cell Lung Cancer), five dose",7.73 µM
same,CC50,"[1]; HT29 (Colon Cancer), five dose",8.28 µM
same,CC50,"[1]; IGROV1 (Ovarian Cancer), five dose",7.76 µM
same,CC50,"[1]; K-562 (Leukemia), five dose",> 100 µM
same,CC50,"[1]; KM12 (Colon Cancer), five dose",79.2 µM
same,CC50,"[1]; LOX IMVI (Melanoma), five dose",6.16 µM
same,CC50,"[1]; M14 (Melanoma), five dose",81.4 µM
same,CC50,"[1]; MALME-3M (Melanoma), five dose",26.7 µM
same,CC50,"[1]; MCF7 (Breast Cancer), five dose",7.87 µM
same,CC50,"[1]; MDA-MB-231/ATCC (Breast Cancer), five dose",9.99 µM
same,CC50,"[1]; MDA-MB-435 (Melanoma), five dose",> 100 µM
same,CC50,"[1]; MOLT-4 (Leukemia), five dose",> 100 µM
same,CC50,"[1]; NCI-H23 (Non-small Cell Lung Cancer), five dose",77.7 µM
same,CC50,"[1]; NCI-H226 (Non-small Cell Lung Cancer), five dose",81.5 µM
same,CC50,"[1]; NCI-H460 (Non-small Cell Lung Cancer), five dose",> 100 µM
same,CC50,"[1]; NCI-H522 (Non-small Cell Lung Cancer), five dose",5.75 µM
same,CC50,"[1]; NCI/ADR-RES (Ovarian Cancer), five dose",> 100 µM
same,CC50,"[1]; OVCAR-3 (Ovarian Cancer), five dose",6.34 µM
same,CC50,"[1]; OVCAR-4 (Ovarian Cancer), five dose",> 100 µM
same,CC50,"[1]; OVCAR-5 (Ovarian Cancer), five dose",> 100 µM
same,CC50,[1]; [2],68.7 µM
same,CC50,[1]; [3],7.94 µM
same,CC50,[1]; [4],7.31 µM
same,CC50,"[1]; SF-268 (CNS Cancer), five dose",> 100 µM
same,CC50,"[1]; SK-MEL-2 (Melanoma), five dose",26.7 µM
same,CC50,"[1]; SK-MEL-5 (Melanoma), five dose",9.24 µM
same,CC50,[1]; [6],> 100 µM
same,CC50,[1]; [7],36 µM
same,CC50,"[1]; SNB-19 (CNS Cancer), five dose",22.7 µM
same,CC50,"[1]; SNB-75 (CNS Cancer), five dose",> 100 µM
same,CC50,[1]; [8],> 100 µM
same,CC50,[1]; [9],> 100 µM
same,CC50,[1]; [10],8.72 µM
same,CC50,"[1]; U251 (CNS Cancer), five dose",8.51 µM
same,CC50,"[1]; UACC-62 (Melanoma), five dose",6.31 µM
same,CC50,"[1]; UACC-257 (Melanoma), five dose",> 100 µM
same,CC50,[1]; [11],7.69 µM
same,Growth Percent,HCT-15 (Colon Cancer),6.88%
same,Growth Percent,SF-539,−5.93%
